Experimental data: patent publication US10174033B2, “N6-substituted adenosine derivatives and N6-substituted adenine derivatives and uses thereof” (INSTITUTE OF MATERIA MEDICA, CHINESE ACADEMY OF MEDICAL …, priority 2009, dated 2019)

Legend:
[1] = system: male ICR-mice; assay: Potentiation of sodium pentobarbital sleeping time test; type: in vivo
[2] = bioassay-guided fractionation, sedative and hypnotic effects; conditions: compound isolated from Gastrodia elata and Gymnadenia conopsea, result in words
[3] = target: adenosine A2A receptor (Homo sapiens, UniProt P29274); conditions: result in words; cited from earlier work
adenosine A2A receptor, sequence (P29274 whole entry): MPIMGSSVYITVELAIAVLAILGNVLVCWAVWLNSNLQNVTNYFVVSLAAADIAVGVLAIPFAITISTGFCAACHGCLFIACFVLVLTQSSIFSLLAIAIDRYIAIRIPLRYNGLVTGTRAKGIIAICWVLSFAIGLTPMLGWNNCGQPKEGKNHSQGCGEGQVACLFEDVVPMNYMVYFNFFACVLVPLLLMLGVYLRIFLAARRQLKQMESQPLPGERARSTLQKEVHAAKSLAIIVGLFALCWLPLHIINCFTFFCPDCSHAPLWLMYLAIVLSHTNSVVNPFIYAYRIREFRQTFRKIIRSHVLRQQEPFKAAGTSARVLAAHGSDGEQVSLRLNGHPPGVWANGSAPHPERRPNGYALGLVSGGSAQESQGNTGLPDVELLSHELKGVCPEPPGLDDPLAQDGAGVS

[4] = system: PC12 cell; conditions: result in words; cited from earlier work
[5] = system: mice; assay: Sub-threshold hypnotic dose sodium pentobarbital induced sleeping test; type: in vivo; conditions: intraperitoneal, 30 min before sub-threshold sodium pentobarbital (22 mg/kg ip)
Method: N^6-substituted adenosine derivatives and/or N^6-substituted adenine derivatives potentiated sodium pentobarbital-induced sleep in mice
Name of Experiment: Sub-threshold hypnotic dose sodium pentobarbital induced sleeping test
Method of Experiment: Mice (n=7-10) were pretreated with test compound or vehicle, after 30 min, a maximal sub-threshold hypnotic dose of sodium pentobarbital (22 mg/kg) was given intraperitoneally (ip). (On some condition, the sub-threshold dosage of sodium pentobarbital should be optimized to the maximum dose, at which the rate of sleep onset of vehicle group is less than 10%). […] Following sodium pentobarbital injection, each mouse was observed 15 min for onset of sleep. The percentage of sleep onset was calculated as: (number of animals falling asleep/total number of animals)×100%.

[6] = intraperitoneal, 1 mg/kg, 38 mg/kg sodium pentobarbital 30 min later
[7] = intraperitoneal, 5 mg/kg, 38 mg/kg sodium pentobarbital 30 min later
[8] = oral, 5 mg/kg, 38 mg/kg sodium pentobarbital 60 min later

In the case of `OC[C@H]1O[C@@H](n2cnc3c(NCc4ccc(O)cc4)ncnc32)[C@H](O)[C@@H]1O` [Example 2, N^6-(p-hydroxybenzyl)-adenosine], the “Sleep prolonging rate (%)” value ([1]; oral, 1 mg/kg, 38 mg/kg sodium pentobarbital 60 min later) is given as 90%, the “sedative and hypnotic effects” value [2] is given as “significant sedative and hypnotic effects” and the “binding to adenosine A2A receptor” value [3] is given as “binding to adenosine A2A receptor”. For the same molecule, the “preventing PC12 cell apoptosis” value [4] was “effective in preventing PC12 cell apoptosis” and the “Sleep rate (%)” value ([5]; 1 mg/kg) was 63%.

For `COc1ccc(CCNc2ncnc3c2ncn3[C@@H]2O[C@H](CO)[C@@H](O)[C@H]2O)cc1O` [Example 40, N^6-[(3-hydroxy-4-methoxyphenyl)-ethyl]-adenosine], the “Sleep prolonging rate (%)” value [1, 6] was 1% and the “Sleep rate (%)” value ([5]; 1 mg/kg) was 50%.

In the case of `O=C(O)[C@@H](Cc1ccccc1)Nc1ncnc2c1ncn2[C@@H]1O[C@H](CO)C(O)C1O` (some centres unmarked) [Example 103, N-(6-adenosine)-(D)-phenylalanine], the “Sleep prolonging rate (%)” value [1, 7] is reported as 19% and the “Sleep rate (%)” value ([5]; 5 mg/kg) is reported as 17%.

In the case of `Nc1cccc(CNc2ncnc3c2ncn3[C@@H]2O[C@H](CO)[C@@H](O)[C@H]2O)c1` [Example 7, N^6-(m-aminobenzyl)-adenosine], the “Sleep prolonging rate (%)” value [1, 6] is reported as 101%, the “Sleep prolonging rate (%)” value [1, 8] is reported as 50% and the “Sleep rate (%)” value ([5]; 1 mg/kg) is reported as 100%.

With `O=C(O)[C@@H](CO)Nc1ncnc2c1ncn2[C@@H]1O[C@H](CO)C(O)C1O` (some centres unmarked) [Example 125, N-(6-adenosine)-(D)-serine] the “Sleep prolonging rate (%)” value ([1]; intraperitoneal, 5 mg/kg, 38 mg/kg sodium pentobarbital 30 min later, listed as N-(6-adenosine)-(D)-serine) was 0% and the “Sleep rate (%)” value ([5]; 5 mg/kg, listed as N-(6-adenosine)-(D)-serine) was 14%.

With `O=C(O)[C@@H](CO)Nc1ncnc2c1ncn2[C@@H]1O[C@H](CO)C(O)C1O` (some centres unmarked) [Example 124, N-(6-adenosine)-(L)-serine] the “Sleep prolonging rate (%)” value ([1]; intraperitoneal, 5 mg/kg, 38 mg/kg sodium pentobarbital 30 min later, listed as N-(6-adenosine)-(L)-serine) was 15% and the “Sleep rate (%)” value ([5]; 5 mg/kg, listed as N-(6-adenosine)-(L)-serine) was 29%.

With `OC[C@H]1O[C@@H](n2cnc3c(NCc4ccc(OC(F)(F)F)cc4)ncnc32)[C@H](O)[C@@H]1O` [Example 12, N^6-(p-trifluoromethoxybenzyl)-adenosine] the “Sleep prolonging rate (%)” value [1, 7] was 44% and the “Sleep rate (%)” value ([5]; 5 mg/kg) was 43%.

In the case of `COc1cc(CNc2ncnc3c2ncn3[C@@H]2O[C@H](CO)[C@@H](O)[C@H]2O)ccc1O` [Example 23, N^6-(3-methoxy-4-hydroxybenzyl)-adenosine], the “Sleep prolonging rate (%)” value ([1]; oral, 4 mg/kg, 38 mg/kg sodium pentobarbital 60 min later) is reported as 87% and the “Sleep rate (%)” value ([5]; 1 mg/kg) is reported as 100%.

With `OC[C@H]1O[C@@H](n2cnc3c(NCCc4c[nH]c5ccccc45)ncnc32)[C@H](O)[C@@H]1O` [Example 44, N^6-[(1H-Indole-3-yl)-ethyl]-adenosine] the “Sleep prolonging rate (%)” value [1, 7] was 147%, the “Sleep prolonging rate (%)” value [1, 8] was 78% and the “Sleep rate (%)” value ([5]; 5 mg/kg) was 86%.
